In BindingDB's records for doi:10.3109/14756366.2011.604852 (Erzincan University, 2012):

Key:
Carbonic anhydrase 1 = Carbonic anhydrase 1 (Homo sapiens, UniProt P00915); test: Esterase Activity Assay; conditions: pH 7.4; 25 °C
Experimental: (§1) CA activity was assayed according to method of Verpoorte et al. [Verpoorte et al., J. Biol. Chem., 242:4221-4229] described previously by Innocenti et al. [Innocenti et al., Bioorg. Med. Chem., 18:2159-2164; Innocenti et al., Bioorg. Med. Chem. Lett., 20:5050-5053] CA activity was determined by following thechange in absorbance at 348 nm of 4-nitrophenylacetate (NPA) to 4-nitrophenylate ion over a period of 3 min at 25°C using a spectrophotometer (CHEBIOS UV-VIS). The enzymatic reaction, in a total volume of 3.0 mL, contained 1.4 mL 0.05 M Tris-SO4 buffer (pH 7.4), 1 mL, 3 mM 4-nitrophenylacetate, 0.5 mL H2O and 0.1 mL enzyme solution. A reference measurement was obtained by preparing the same cuvette without enzyme solution. The inhibitory effects of ampicillin sulfate, ceftriaxone, ceftizoxime, ranitidine were examined. All compounds were tested in triplicate at each concentration used. Different inhibitor concentrations were used. HCA-I enzyme activities were measured for ceftriaxone (0.003-0.033 mM), ceftizoxime (0.017-0.096 mM), ranitidine (0.026-0.053 mM) at cuvette concentrations and HCAII enzyme activities were measured for ampicillin sulfate (0.038-0.095 mM), ceftriaxone (0.003-0.021 mM), ceftizoxime (0.026-0.061 mM) and ranitidine (0.032-0.058 mM) at cuvette concentrations.

Carbonic anhydrase 2 = Carbonic anhydrase 2 (Homo sapiens, UniProt P00918); test: Esterase Activity Assay; conditions: pH 7.4; 25 °C
Experimental: as §1

Carbonic anhydrase 1, sequence (P00915 whole entry): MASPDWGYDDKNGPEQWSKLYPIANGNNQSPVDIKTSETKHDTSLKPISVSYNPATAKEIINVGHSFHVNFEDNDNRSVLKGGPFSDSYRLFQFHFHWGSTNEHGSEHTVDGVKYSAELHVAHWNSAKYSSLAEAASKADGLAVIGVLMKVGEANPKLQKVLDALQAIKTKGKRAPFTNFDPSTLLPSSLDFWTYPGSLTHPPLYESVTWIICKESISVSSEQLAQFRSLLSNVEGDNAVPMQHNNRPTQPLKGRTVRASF

SMILES | IC50 (Carbonic anhydrase 1) [µM] | Ki (Carbonic anhydrase 1) [µM] | IC50 (Carbonic anhydrase 2) [µM] | Ki (Carbonic anhydrase 2) [µM]
CO/N=C(\C(=O)N[C@@H]1C(=O)N2C(C(=O)O)=C(CSc3nc(=O)c(=O)[nH]n3C)CS[C@H]12)c1csc(N)n1 [(6R,7R)-7-{2-(2-Amino-thiazol-4-yl)-2-[(Z)-methoxyimino]-acetylamino}-3-(2-methyl-5,6-dioxo-1,2,5,6-tetrahydro-[1,2,4]triazin-3-ylsulfanylmethyl)-8-oxo-5-thia-1-aza-bicyclo[4.2.0]oct-2-ene-2-carboxylic acid] | 27.1 | 28.5 | 21 | 15.8
CC1(C)S[C@@H]2[C@H](NC(=O)[C@H](N)c3ccccc3)C(=O)N2[C@H]1C(=O)O [AY-6108] | – | – | 56.8 | 83
CO/N=C(\C(=O)N[C@@H]1C(=O)N2C(C(=O)O)=CCS[C@H]12)c1csc(N)n1 [Ceftizoxime] | 79.4 | 86.1 | 79.1 | 51.8
CN/C(=C\[N+](=O)[O-])NCCSCc1ccc(CN(C)C)o1 [Ranitidine] | 55.5 | 54.7 | 66.1 | 29.7
